Tests used:
Assay type in all cases: functional
MCF7 = assay: Growth inhibition of human MCF7 cells at 10^-5 M incubated for 48 hrs by sulforhodamine B assay relative to control; conditions: MCF7, 48 h, read-out: GI
T47D = assay: Growth inhibition of human T47D cells at 10^-5 M incubated for 48 hrs by sulforhodamine B assay relative to control; conditions: read-out: GI
MDA-MB-468 = assay: Growth inhibition of human MDA-MB-468 cells at 10^-5 M incubated for 48 hrs by sulforhodamine B assay relative to control; conditions: MDA-MB-468, 48 h, read-out: GI

## O=C1/C(=C\c2cccn2Cc2ccccc2)c2ccccc2N1c1c(Cl)cccc1Cl
MCF7
  inhibition of growth at 10 µM: 93%
T47D
  inhibition of growth at 10 µM: 100%
MDA-MB-468
  inhibition of growth at 10 µM: 100%
